The record followed here is patent US12084462B2, “Spiro bicyclic inhibitors of menin-MLL interaction” (Janssen Pharmaceutica NV, priority 2016, dated 2024).

“And” between values parts separate entries of the source, which are not always exact repeats. Identical values can stand only once. Like-named read-outs stand apart in the source and are kept apart here.

For assay [1], the system named is MV-4-11. Nature of the assay: Proliferation assay (spheroid assay) MV-4-11. Conditions: Homo sapiens. It is filed as cell-based, human. The essentials:
(§1)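 Cells grown as spheroids in ultra-low attachment round-bottom wells with compound at varied concentrations (0.3% DMSO) for 8 d at 37 °C; confluence imaged every 4 h. AUC of confluence over time (t=0 baseline) expressed as % of vehicle control; absolute IC50 from nonlinear least-squares fit.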

Assay [2] relates to MOLM14. The experiment in a line: Proliferation assay (spheroid assay) MOLM14. Format: cell-based, human. An outline of the steps: as §1
The test system of assay [3] is KG1. The experiment in a line: Proliferation assay (spheroid assay) KG1, control cell line. Format: cell-based. The note with it: Homo sapiens. Here is the method: (§2) The anti-proliferative effect of menin/MLL protein/protein interaction inhibitor test compounds was assessed in human leukemia cell lines. The cell lines MV-4-11 and MOLM14 harbor MLL translocations and express the MLL fusion proteins MLL-AF4 and MLL-AF9, respectively, as well as the wildtype protein from the second allele. […] K562 and KG1 were used as a control cell lines containing two MLL wildtype alleles in order to exclude compounds that display general cytotoxic effects.
(§3) MV-4-11 and MOLM14 were cultured in RPMI-1640 (Sigma Aldrich) supplemented with 10% fetal bovine serum (HyClone), 2 mM L-glutamine (Sigma Aldrich) and 50 μg/ml gentamycin (Gibco). K562 were propagated in RPMI-1640 (Sigma Aldrich) supplemented with 20% fetal bovine serum (HyClone), 2 mM L-glutamine (Sigma Aldrich) and 50 μg/ml gentamycin (Gibco). KG1 were cultured in Iscove's MDM (Gibco) supplemented with 20% fetal bovine serum (HyClone), 2 mM L-glutamine (Sigma Aldrich) and 50 μg/ml gentamycin (Gibco).
(§4) In order to assess the anti-proliferative effects, 1,500 MV-4-11, 300 MOLM14, 750 K562 or 1,300 KG1 cells were seeded in 200 μl media per well in 96-well round bottom, ultra-low attachment plates (Costar, catalogue number 7007). Cell seeding numbers were chosen based on growth curves to ensure linear growth throughout the experiment. Test compounds were added at different concentrations and the DMSO content was normalized to 0.3%. Cells were incubated for 8 d at 37° C. and 5% CO2. Spheroid like growth was monitored in real-time by live-cell imaging (IncuCyteZOOM, Essenbio, 4× objective) acquiring one image every four hours for 8 d. Confluence (%) as a measure of spheroid size was determined using an integrated analysis tool.
(§5) In order to determine the cumulative effect of the test compounds over time, the area under the curve (AUC) in a plot of confluence against time was calculated. Confluence at the beginning of the experiment (t=0) was used as baseline for the AUC calculation.
(§6) Absolute IC50 values were calculated according to the following procedure: % Control=(AUC sample/AUC control)*100 AUC control=mean AUC of control values (cells without compound/DMSO as vehicle control)
(§7) A non-linear curve fit was applied using the least squares (ordinary) fit method to the plot of % control versus compound concentration. Based on this, the absolute IC50 value (half maximal inhibitory concentration of the test compound causing an anti-proliferative effect of 50% relative to the vehicle control) was calculated.

Assay [4] concerns K562. Nature of the assay: Proliferation assay (spheroid assay) K562, control cell line. It is filed as cell-based. Conditions: Homo sapiens. The method, then: as §2, §3, §4, §5, §6, §7
Assay [5] deals with T1, menin (Homo sapiens, UniProt O00255, T541A).
T1 sequence (O00255 with tags, fused parts or gaps T541A): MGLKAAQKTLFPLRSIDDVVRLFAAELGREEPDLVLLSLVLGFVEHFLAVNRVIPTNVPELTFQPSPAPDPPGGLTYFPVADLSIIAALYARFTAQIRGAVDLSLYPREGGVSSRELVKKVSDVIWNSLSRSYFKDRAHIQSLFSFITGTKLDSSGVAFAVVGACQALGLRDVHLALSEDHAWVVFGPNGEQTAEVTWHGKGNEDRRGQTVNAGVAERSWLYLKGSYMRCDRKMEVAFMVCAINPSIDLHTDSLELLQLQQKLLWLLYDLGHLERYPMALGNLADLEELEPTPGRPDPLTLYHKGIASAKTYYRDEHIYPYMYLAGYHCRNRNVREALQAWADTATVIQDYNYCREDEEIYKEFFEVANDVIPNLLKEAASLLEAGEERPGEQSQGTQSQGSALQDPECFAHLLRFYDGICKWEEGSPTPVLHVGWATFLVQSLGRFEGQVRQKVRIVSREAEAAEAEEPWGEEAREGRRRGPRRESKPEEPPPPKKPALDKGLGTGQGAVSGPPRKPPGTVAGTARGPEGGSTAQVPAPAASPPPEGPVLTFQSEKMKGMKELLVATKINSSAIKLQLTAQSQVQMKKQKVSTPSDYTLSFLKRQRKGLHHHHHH
The experiment in a line: Menin/MLL fluorescence polarization (FP) assay. It is filed as binding. An outline of the steps: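 Compound preincubated 10 min with 100 nM menin, then 5 nM FITC-MBM1 peptide added for 15 min at ambient temperature; pH 7.5 Tris buffer, 0.625% DMSO final. FP read at 485/520 nm. % inhibition versus saturating-competitor and no-competitor controls; 11-point three-fold dilutions from 31 μM.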
A general note: Polarisation of emitted light reports the rotation of a fluorescent probe.

[6] abbreviates: MV4-11, MV-4-11, averaged values, read-out: Spheroid assay MV-4-11 (IC50 (μM)).
Where [7] appears, read: Homo sapiens, MOLM-14, MOLM14, averaged values, read-out: Spheroid assay MOLM14 (IC50 (μM)).
The mark [8] stands for this setting: KG-1, KG1 control cell line, averaged values, read-out: Spheroid assay KG1 (IC50 (μM)).
Setting [9] is: K562 control cell line, averaged values, read-out: Spheroid assay K562 (IC50 (μM)).

By IC50 is commonly meant the midpoint of a concentration-inhibition curve.

As to `C[C@@H]1CN[C@H](C(=O)N2CC3(C2)CN(c2ncnc4sc(CC(F)(F)F)cc24)C3)C1` [Compound 82], the IC50 was 0.38 µM in assay [1] (setting [6]), 1.8 µM in assay [2] (setting [7]), over 15 µM in assay [3] (setting [8]) and over 15 µM in assay [4] (setting [9]).

Regarding `CC(C)[C@H](C1CNC1)N1CC2(CCN(c3ncnc4sc(CC(F)(F)F)cc34)C2)C1` [Compound 273], the IC50 turned out to be 0.08 µM in assay [1] (setting [6]); 0.86 µM in assay [2] (setting [7]); 12 µM in assay [3] (setting [8]); 0.021 µM in assay [5] (averaged values over all measurements, read-out: Menin FP assay (IC50 (μM))); 10.3 µM in assay [4] (setting [9]).

`CC(C)[C@H](C1CCOCC1)N1CC2(CCN(c3ncnc4sc(CC(F)(F)F)cc34)C2)C1` [Compound 193]: the IC50 is 0.65 µM in assay [1] (setting [6]), 1.7 µM in assay [2] (setting [7]), over 15 µM in assay [3] (setting [8]) and over 15 µM in assay [4] (setting [9]).

For `CC[C@H](c1cnn(C)c1)N1CC2(CCN(c3ncnc4sc(CC(F)(F)F)cc34)C2)C1` [Compound 220], the IC50 in assay [1] (setting [6]) is 0.65 µM; in assay [2] (setting [7]) it was 4.7 µM; in assay [3] (setting [8]), over 15 µM; in assay [4] (setting [9]), over 15 µM.

As for `CC(C)[C@H](C1CN(C)C1)N1CC2(CCN(c3ncnc4sc(CC(F)(F)F)cc34)C2)C1` [Compound 196], the IC50 is 0.3 µM in assay [1] (setting [6]), 1.1 µM in assay [2] (setting [7]), over 15 µM in assay [3] (setting [8]) and over 15 µM in assay [4] (setting [9]).

`CC(C)C[C@H](c1cnn(C)c1)N1CC2(CCN(c3ncnc4sc(CC(F)(F)F)cc34)C2)C1` [Compound 247]: the IC50 in assay [1] (setting [6]) was 0.45 µM; in assay [2] (setting [7]) it was 2.1 µM; in assay [3] (setting [8]), over 15 µM; in assay [4] (setting [9]) it was over 15 µM.

Regarding `FC(F)(F)Cc1cc2c(N3CC[C@]4(CCN(Cc5ccccc5)C4)C3)ncnc2s1` (single isomer, unassigned) [Compound 20b], the IC50 in assay [1] (MV4-11, 192 h, MV-4-11 (MLL-AF4), 8 d, absolute IC50 from AUC of confluence, individual measurements (not averaged), read-out: (2) Spheroid assay MV-4-11 (IC50 (μM))) is 0.51 µM; in assay [2] (MOLM14 (MLL-AF9), 8 d, absolute IC50 from AUC of confluence, individual measurements (not averaged), read-out: (2) Spheroid assay MOLM14 (IC50 (μM))) it was > 15 µM and 2.5 µM; in assay [3] (KG-1, 192 h, KG1 (MLL wildtype control), 8 d, absolute IC50 from AUC of confluence, individual measurements (not averaged), read-out: (2) Spheroid assay KG1 (IC50 (μM))), over 15 µM; in assay [5] (100 nM menin, 5 nM FITC-MBM1 peptide, individual measurements (not averaged), read-out: (1) Menin FP assay (IC50 (μM))) it was 0.038 µM; in assay [4] (192 h, K562 (MLL wildtype control), 8 d, absolute IC50 from AUC of confluence, individual measurements (not averaged), read-out: (2) Spheroid assay K562 (IC50 (μM))), over 15 µM.

With `CC(C)[C@H](C1CCNCC1)N1CC2(CCN(c3ncnc4sc(CC(F)(F)F)cc34)C2)C1` [Compound 168], the IC50 in assay [1] (setting [6]) came to 0.19 µM; in assay [2] (setting [7]) it was 0.86 µM; in assay [3] (setting [8]), 15 µM; in assay [4] (setting [9]), 11.9 µM.

Consider `CC(C)[C@H](c1cnn(C)c1)N1CC2(CCN(c3ncnc4sc(CC(F)(F)F)cc34)C2)C1` [Compound 274], for which the IC50 was 0.36 µM in assay [1] (setting [6]), 2.3 µM in assay [2] (setting [7]), over 15 µM in assay [3] (setting [8]) and over 15 µM in assay [4] (setting [9]).
